The results in this text go back to patent US7576064B2, “Pyrazole derivative, drug composition containing the same and production intermediate therefor” (Kissei Pharmaceutical Co., Ltd., priority 2003, dated 2009).

Molecules are shown by their SMILES. pIC50: −log10 of the molar value.

Assay [1] concerns the target T1, human SMINT (Homo sapiens, UniProt Q2M3M2).
T1 construct: expressed in transfected cells; host or cells: COS-7 cells (RIKEN CELL BANK RCB0539), transient lipofection
T1 sequence (Q2M3M2 1-681): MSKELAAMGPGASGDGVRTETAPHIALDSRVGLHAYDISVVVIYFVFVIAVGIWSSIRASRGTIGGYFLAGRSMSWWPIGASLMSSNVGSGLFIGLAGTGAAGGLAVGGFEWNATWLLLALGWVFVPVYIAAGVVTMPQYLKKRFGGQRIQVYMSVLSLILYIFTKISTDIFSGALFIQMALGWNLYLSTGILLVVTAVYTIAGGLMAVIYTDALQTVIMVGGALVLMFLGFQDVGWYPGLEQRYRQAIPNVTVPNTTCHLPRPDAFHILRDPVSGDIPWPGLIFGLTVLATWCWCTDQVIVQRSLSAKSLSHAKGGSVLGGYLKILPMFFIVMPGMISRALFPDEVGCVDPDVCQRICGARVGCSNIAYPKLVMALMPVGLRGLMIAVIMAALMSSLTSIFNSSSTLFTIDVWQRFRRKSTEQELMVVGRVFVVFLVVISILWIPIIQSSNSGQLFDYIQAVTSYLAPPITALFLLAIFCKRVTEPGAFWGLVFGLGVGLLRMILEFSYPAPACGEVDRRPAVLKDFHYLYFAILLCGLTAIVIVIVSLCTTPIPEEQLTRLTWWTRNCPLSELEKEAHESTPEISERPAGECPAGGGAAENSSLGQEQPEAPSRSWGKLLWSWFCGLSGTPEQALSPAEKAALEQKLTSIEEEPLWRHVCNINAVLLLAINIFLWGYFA
In words: Confirmatory test for substrate specificity of human SMINT (inhibition of α-MG uptake by natural sugars). The format is cell-based. As to conditions: natural sugars added to Uptake Buffer with 1 mM α-MG; COS-7 cells transiently expressing human SMINT. From the text: FIG. 2 is a graph showing substrate specificity of human SMINT. The vertical axis in dicates methyl-α-D-glucopyranoside (α-MG) uptake activity (%), and the horizontal axis indicates concentration (mol/L).
1) Preparation of Cells Transiently Expressing Human SMINT
Human SMINT-carrying expression plasmid SMINT/pME18S-FL (denotation of bacteria: Escherichia coli/SMINT2010324), which was deposited with Patent Microorganisms Depositary at the National Institute of Technology and Evaluation under an accession number: FERMP-18756 on Mar. 12, 2002, was transfected to COS-7 cells (RIKEN CELL BANK RCB0539) by lipofection method. LIPOFECTAMINE PLUS reagent (Invitrogen) was used as the lipofection reagent. A day before the lipofection, COS-7 cells were suspended in D-MEM medium (Invitrogen) at 6×10^5 cells per 1 mL, and 50 μL of the suspended cells was dispensed into each well of 96-well plate. The lipofection was performed by the following methods. For each well, 0.1 μg of the plasmid was diluted with 10 μL of D-MEM, added 0.5 μL of PLUS reagent, mixed gently, and kept stand for 15 minutes to prepare Plasmid Dilute Solution. For each well, 0.5 μL of LIPOFECTAMINE reagent was diluted with 10 μL of D-MEM to prepare LIPOFECTAMINE Dilute Solution. […]
To Uptake Buffer consisting of 140 mM sodium chloride, 2 mM potassium chloride, 1 mM calcium chloride, 1 mM magnesium chloride, 10 mM 2-[2-(2-hydroxyethyl)-1-piperazinyl]-ethanesulfonic acid, and 5 mM tris(hydroxymethyl)aminomethane (pH 7.4), was added methyl-α-D-glucopyranoside (α-MG) composed of its non-radiolabeled form (Sigma) and ^14C-labeled form (Amersham Biosciences) at 1 mM as the final concentration. […] To the cell lysates were added 150 μL per well of MicroScint 40 (Packard), mixed well, and the radio activity was measured in a micro scintillation counter TOPCOUNT (Packard). α-MG uptake by the cells treated with each concentration of test compounds was calculated as relative activity to control group, which is set as 100% uptake after deducting the basal uptake. […]

In assay [2] the target is T1, human SMINT. Description: Confirmatory test for inhibitory activity on human SMINT (methyl-α-D-glucopyranoside uptake in transiently expressing COS-7 cells). It counts as cell-based. As to conditions: COS-7 cells transiently expressing human SMINT; 1 mM α-MG; 1 hour, 37° C.; read-out: IC50 value (concentration inhibiting α-MG uptake by 50%). An excerpt:
Human SMINT-carrying expression plasmid SMINT/pME18S-FL (denotation of bacteria: Escherichia coli/SMINT2010324), which was deposited with Patent Microorganisms Depositary at the National Institute of Technology and Evaluation under an accession number: FERMP-18756 on Mar. 12, 2002, was transfected to COS-7 cells (RIKEN CELL BANK RCB0539) by lipofection method. LIPOFECTAMINE PLUS reagent (Invitrogen) was used as the lipofection reagent. A day before the lipofection, COS-7 cells were suspended in D-MEM medium (Invitrogen) at 6×10^5 cells per 1 mL, and 50 μL of the suspended cells was dispensed into each well of 96-well plate. The lipofection was performed by the following methods. For each well, 0.1 μg of the plasmid was diluted with 10 μL of D-MEM, added 0.5 μL of PLUS reagent, mixed gently, and kept stand for 15 minutes to prepare Plasmid Dilute Solution. For each well, 0.5 μL of LIPOFECTAMINE reagent was diluted with 10 μL of D-MEM to prepare LIPOFECTAMINE Dilute Solution. The Plasmid Dilute Solution was mixed with an equal volume of the LIPOFECTAMINE Dilute Solution, kept stand for 15 minutes. After that, 20 μL of the mixture was added to each well of cell culture medium, and the cells were cultured for 5 hours at 37° C. under 5% CO2. Then 100 μL of D-MEM containing 16.7% fetal bovine serum (Sanko Jun-yaku) was added to each well. […]

Consider `OC[C@H]1OC[C@H](O)[C@@H](O)[C@@H]1O` [1,5-anhydroglucitol], for which, in assay [1], the “recognition as substrate by SMINT (FIG. 2)” value (shortened to “recognition as substrate”) is “recognizes”.
Take `COc1ccc(Cc2c(O[C@@H]3O[C@H](CO)[C@@H](O)[C@H](O)[C@H]3O)nn(C(C)C)c2Oc2ccccc2)cc1` [Example 1, 1-Isopropyl-4-(4-methoxybenzyl)-5-phenoxy-3-(β-D-glucopyranosyloxy)-1H-pyrazole]: the pIC50 in assay [2] was 6.15.
On the same count and under the same terms, the figure for `COc1ccc(Cc2c(O[C@@H]3O[C@H](CO)[C@@H](O)[C@H](O)[C@H]3O)nn(C(C)C)c2-n2cccn2)c(OC)c1` [Example 4, 1-Isopropyl-4-(2,4-dimethoxyphenylmethyl)-5-(1H-pyrazol-1-yl)-3-(β-D-glucopyranosyloxy)-1H-pyrazole] is 6.05.
Turning to `O=C(CO)[C@@H](O)[C@H](O)[C@H](O)CO` [fructose], the “recognition as substrate” value in assay [1] is recorded as “recognizes”.
Turning to `O=C[C@H](O)[C@@H](O)[C@@H](O)[C@H](O)CO` [galactose], the “recognition as substrate” value in assay [1] is “not”.
